# Patent US20050197350A1, “Novel quinoline, tetrahydroquinazoline, and pyrimidine derivatives and methods of treatment related to the use thereof” (TAISHO PHARMACEUTICAL CO., LTD., priority 2003, published 2005)
# Tested on: MCH receptors
# Test: MCH receptor activity class (method not given)
# Settings: class 1-3 by percent of control at 10^-7 M or IC50
row,SMILES,class
1,"CN(C)c1nc(N[C@H]2CC[C@@H](NC(=O)c3cncc(Br)c3)CC2)nc2c1CCCC2 [compound 524, 5-bromo-N-(cis-4-{[4-(dimethylamino)-5,6,7,8-tetrahydroquinazolin-2-yl]amino}cyclohexyl)nicotinamide]",1 (Class 1: The value of percent of control at 10^−7 M was less than 40% or the value of IC50 was less than 50 nM.)
2,CN(C)c1nc(N[C@H]2CC[C@@H](NC(=O)Cc3cccc4ccccc34)CC2)nc2c1CCCC2 [compound 525],3 (Class 3 The value of percent of control at 10^−7 M was more than 60% or the value of IC50 was more than 200 nM.)
3,Cc1cc(C(=O)N[C@H]2CC[C@@H](Nc3nc4c(c(N(C)C)n3)CCCC4)CC2)nn1C(C)(C)C [compound 526],3 (Class 3 The value of percent of control at 10^−7 M was more than 60% or the value of IC50 was more than 200 nM.)
4,CN(C)c1nc(N[C@H]2CC[C@@H](NC(=O)c3csc4ccccc34)CC2)nc2c1CCCC2 [compound 527],3 (Class 3 The value of percent of control at 10^−7 M was more than 60% or the value of IC50 was more than 200 nM.)
5,"CN(C)c1nc(N[C@H]2CC[C@@H](NC(=O)c3ccccc3)CC2)nc2c1CCCC2 [compound 529, N-(cis-4-{[4-(dimethylamino)-5,6,7,8-tetrahydroquinazolin-2-yl]amino}cyclohexyl)benzamide]",2 (Class 2: The value of percent of control at 10^−7 M was from 40% to 60% or the value of IC′50 was from 50 nM to 200 nM.)
6,CN(C)c1nc(N[C@H]2CC[C@@H](NC(=O)c3cc4ccccc4s3)CC2)nc2c1CCCC2 [compound 530],3 (Class 3 The value of percent of control at 10^−7 M was more than 60% or the value of IC50 was more than 200 nM.)
7,"CN(C)c1nc(N[C@H]2CC[C@@H](NC(=O)COCc3ccccc3)CC2)nc2c1CCCC2 [compound 531, 2-(benzyloxy)-N-(cis-4-{[4-(dimethylamino)-5,6,7,8-tetrahydroquinazolin-2-yl]amino}cyclohexyl)acetamide]",2 (Class 2: The value of percent of control at 10^−7 M was from 40% to 60% or the value of IC′50 was from 50 nM to 200 nM.)
8,CN(C)c1nc(N[C@H]2CC[C@@H](NC(=O)COc3ccc(Cl)cc3)CC2)nc2c1CCCC2 [compound 532],2 (Class 2: The value of percent of control at 10^−7 M was from 40% to 60% or the value of IC′50 was from 50 nM to 200 nM.)
9,CN(C)c1nc(N[C@H]2CC[C@@H](NC(=O)C3CCCCC3)CC2)nc2c1CCCC2 [compound 533],3 (Class 3 The value of percent of control at 10^−7 M was more than 60% or the value of IC50 was more than 200 nM.)
10,Cc1onc(-c2ccccc2Cl)c1C(=O)N[C@H]1CC[C@@H](Nc2nc3c(c(N(C)C)n2)CCCC3)CC1 [compound 534],2 (Class 2: The value of percent of control at 10^−7 M was from 40% to 60% or the value of IC′50 was from 50 nM to 200 nM.)
11,CN(C)c1nc(N[C@H]2CC[C@@H](NC(=O)C3(c4ccc(Cl)cc4)CCCC3)CC2)nc2c1CCCC2 [compound 535],2 (Class 2: The value of percent of control at 10^−7 M was from 40% to 60% or the value of IC′50 was from 50 nM to 200 nM.)
12,"Cc1onc(-c2c(F)cccc2Cl)c1C(=O)N[C@H]1CC[C@@H](Nc2nc3c(c(N(C)C)n2)CCCC3)CC1 [compound 536, 3-(2-chloro-6-fluorophenyl)-N-(cis-4-{[4-(dimethylamino)-5,6,7,8-tetrahydroquinazolin-2-yl]amino}cyclohexyl)-5-methylisoxazole-4-carboxamide]",1 (Class 1: The value of percent of control at 10^−7 M was less than 40% or the value of IC50 was less than 50 nM.)
13,CC(C)S(=O)(=O)c1csc(C(=O)N[C@H]2CC[C@@H](Nc3nc4c(c(N(C)C)n3)CCCC4)CC2)c1Cl [compound 537],3 (Class 3 The value of percent of control at 10^−7 M was more than 60% or the value of IC50 was more than 200 nM.)
14,CN(C)c1nc(N[C@H]2CC[C@@H](NC(=O)c3ccc([N+](=O)[O-])cc3Cl)CC2)nc2c1CCCC2 [compound 538],3 (Class 3 The value of percent of control at 10^−7 M was more than 60% or the value of IC50 was more than 200 nM.)
15,Cc1cc(C(=O)N[C@H]2CC[C@@H](Nc3nc4c(c(N(C)C)n3)CCCC4)CC2)n(C)n1 [compound 539],2 (Class 2: The value of percent of control at 10^−7 M was from 40% to 60% or the value of IC′50 was from 50 nM to 200 nM.)
16,COc1ccc(C(=O)N[C@H]2CC[C@@H](Nc3nc4c(c(N(C)C)n3)CCCC4)CC2)cc1OC [compound 540],3 (Class 3 The value of percent of control at 10^−7 M was more than 60% or the value of IC50 was more than 200 nM.)
17,CN(C)c1nc(N[C@H]2CC[C@@H](NC(=O)c3cccc(F)c3)CC2)nc2c1CCCC2 [compound 541],1 (Class 1: The value of percent of control at 10^−7 M was less than 40% or the value of IC50 was less than 50 nM.)
18,CN(C)c1nc(N[C@H]2CC[C@@H](NC(=O)c3ccc(F)c(C(F)(F)F)c3)CC2)nc2c1CCCC2 [compound 542],1 (Class 1: The value of percent of control at 10^−7 M was less than 40% or the value of IC50 was less than 50 nM.)
19,Cc1nn(-c2ccccc2)nc1C(=O)N[C@H]1CC[C@@H](Nc2nc3c(c(N(C)C)n2)CCCC3)CC1 [compound 543],2 (Class 2: The value of percent of control at 10^−7 M was from 40% to 60% or the value of IC′50 was from 50 nM to 200 nM.)
20,COc1ccc(Oc2ccc([N+](=O)[O-])cc2C(=O)N[C@H]2CC[C@@H](Nc3nc4c(c(N(C)C)n3)CCCC4)CC2)cc1 [compound 544],1 (Class 1: The value of percent of control at 10^−7 M was less than 40% or the value of IC50 was less than 50 nM.)

row,SMILES,class
1,CN(C)c1nc(N[C@H]2CC[C@@H](NC(=O)c3cccc4ccccc34)CC2)nc2c1CCCC2 [compound 545],3 (Class 3 The value of percent of control at 10^−7 M was more than 60% or the value of IC50 was more than 200 nM.)
2,CN(C)c1nc(N[C@H]2CC[C@@H](NC(=O)c3ccc4ccccc4c3)CC2)nc2c1CCCC2 [compound 546],3 (Class 3 The value of percent of control at 10^−7 M was more than 60% or the value of IC50 was more than 200 nM.)
3,CN(C)c1nc(N[C@H]2CC[C@@H](NC(=O)c3ccc([N+](=O)[O-])o3)CC2)nc2c1CCCC2 [compound 547],1 (Class 1: The value of percent of control at 10^−7 M was less than 40% or the value of IC50 was less than 50 nM.)
4,CN(C)c1nc(N[C@H]2CC[C@@H](NC(=O)COc3ccccc3)CC2)nc2c1CCCC2 [compound 548],1 (Class 1: The value of percent of control at 10^−7 M was less than 40% or the value of IC50 was less than 50 nM.)
5,CN(C)c1nc(N[C@H]2CC[C@@H](NC(=O)COc3ccccc3[N+](=O)[O-])CC2)nc2c1CCCC2 [compound 549],3 (Class 3 The value of percent of control at 10^−7 M was more than 60% or the value of IC50 was more than 200 nM.)
6,CN(C)c1nc(N[C@H]2CC[C@@H](NC(=O)c3cnc4ccccc4n3)CC2)nc2c1CCCC2 [compound 550],1 (Class 1: The value of percent of control at 10^−7 M was less than 40% or the value of IC50 was less than 50 nM.)
7,COc1cc(C(=O)N[C@H]2CC[C@@H](Nc3nc4c(c(N(C)C)n3)CCCC4)CC2)cc(OC)c1OC [compound 551],3 (Class 3 The value of percent of control at 10^−7 M was more than 60% or the value of IC50 was more than 200 nM.)
8,CN(C)c1nc(N[C@H]2CC[C@@H](NC(=O)c3cccc(C(F)(F)F)c3)CC2)nc2c1CCCC2 [compound 552],1 (Class 1: The value of percent of control at 10^−7 M was less than 40% or the value of IC50 was less than 50 nM.)
9,CN(C)c1nc(N[C@H]2CC[C@@H](NC(=O)c3ccc(C(F)(F)F)cc3)CC2)nc2c1CCCC2 [compound 553],3 (Class 3 The value of percent of control at 10^−7 M was more than 60% or the value of IC50 was more than 200 nM.)
10,CN(C)c1nc(N[C@H]2CC[C@@H](NC(=O)c3ccccc3OC(F)(F)F)CC2)nc2c1CCCC2 [compound 554],3 (Class 3 The value of percent of control at 10^−7 M was more than 60% or the value of IC50 was more than 200 nM.)
11,COc1cc(COC(=O)N[C@H]2CC[C@@H](Nc3nc4c(c(N(C)C)n3)CCCC4)CC2)c([N+](=O)[O-])cc1OC [compound 555],3 (Class 3 The value of percent of control at 10^−7 M was more than 60% or the value of IC50 was more than 200 nM.)
12,CN(C)c1nc(N[C@H]2CC[C@@H](NC(=O)CCCOc3ccccc3)CC2)nc2c1CCCC2 [compound 556],3 (Class 3 The value of percent of control at 10^−7 M was more than 60% or the value of IC50 was more than 200 nM.)
13,COc1ccc(Br)c(C(=O)N[C@H]2CC[C@@H](Nc3nc4c(c(N(C)C)n3)CCCC4)CC2)c1 [compound 557],3 (Class 3 The value of percent of control at 10^−7 M was more than 60% or the value of IC50 was more than 200 nM.)
14,CN(C)c1nc(N[C@H]2CC[C@@H](NC(=O)COc3c(F)c(F)c(F)c(F)c3F)CC2)nc2c1CCCC2 [compound 558],3 (Class 3 The value of percent of control at 10^−7 M was more than 60% or the value of IC50 was more than 200 nM.)
15,COc1ccc(CC(=O)N[C@H]2CC[C@@H](Nc3nc4c(c(N(C)C)n3)CCCC4)CC2)cc1OC [compound 559],3 (Class 3 The value of percent of control at 10^−7 M was more than 60% or the value of IC50 was more than 200 nM.)
16,CN(C)c1nc(N[C@H]2CC[C@@H](NC(=O)c3ccc(F)c(F)c3F)CC2)nc2c1CCCC2 [compound 560],3 (Class 3 The value of percent of control at 10^−7 M was more than 60% or the value of IC50 was more than 200 nM.)
17,CN(C)c1nc(N[C@H]2CC[C@@H](NC(=O)C3CCCC3)CC2)nc2c1CCCC2 [compound 561],3 (Class 3 The value of percent of control at 10^−7 M was more than 60% or the value of IC50 was more than 200 nM.)
18,CN(C)c1nc(N[C@H]2CC[C@@H](NC(=O)c3ccc(F)cc3F)CC2)nc2c1CCCC2 [compound 562],3 (Class 3 The value of percent of control at 10^−7 M was more than 60% or the value of IC50 was more than 200 nM.)
19,CN(C)c1nc(N[C@H]2CC[C@@H](NC(=O)CCc3ccccc3)CC2)nc2c1CCCC2 [compound 563],3 (Class 3 The value of percent of control at 10^−7 M was more than 60% or the value of IC50 was more than 200 nM.)
20,CN(C)c1nc(N[C@H]2CC[C@@H](NC(=O)c3cc(F)c(F)c(F)c3F)CC2)nc2c1CCCC2 [compound 564],3 (Class 3 The value of percent of control at 10^−7 M was more than 60% or the value of IC50 was more than 200 nM.)
